Experiment [1] deals with constitutive active colorectal cancer cell (CRC) Wnt pathway. Briefly: Cellular reporter assay, HCT116 cells stably transfected with Super TopFlash vector (HCT116-TOP), luciferase readout. In kind it is cell-based. The following applies: Homo sapiens, HCT-116, 36 hours incubation, luciferase expression, average or median values. The procedure:
In order to discover and characterize small molecules which inhibit the constitutive active colorectal cancer cell (CRC) Wnt pathway, a cellular reporter assay was employed. The corresponding assay cell was generated by transfection of the colorectal cancer cell line HCT116 (ATCC, #CCL-247) with the Super TopFlash vector (Morin, Science 275, 1997, 1787-1790; Molenaar et al., Cell 86 (3), 1996, 391-399). The HCT116 cell line is cultivated at 37° C. and 5% CO2 in DMEM/F-12 (Life Technologies, #11320-074), supplemented with 2 mM glutamine, 20 mM HEPES, 1.4 mM pyruvate, 0.15% Na-bicarbonate and 10% foetal bovine serum (GIBCO, #10270), this cancer cell line is pathophysiological relevant since it carries a deletion of position S45 in the β-catenin gene, leading to constitutive active Wnt signaling. Stable transfectants were generated by cotransfection with pcDNA3 and selection of stable transfected cells with 1 mg/mL G418.
(§1) In preparation of the assay, the two cell lines were plated 24 hours before at 10000 cells per well of a 384 micro titre plate (MTP) in 30 μL growth medium. Selective inhibitory activity for small molecules on the mutated Wnt pathway was determined after parallel incubation of both (TOP and FOP) HCT116 reporter cell lines with a compound dilution series from 50 μM to 15 nM in steps of 3.16-fold dilutions in CAFTY buffer (130 mM NaCl, 5 mM KCl, 20 mM HEPES, 1 mM MgCl2, 5 mM NaHCO3, pH 7.4) containing 2 mM Ca^2+ and 0.01% BSA. The compounds were thereby serially prediluted in 100% DMSO and thereafter in addition 50 fold into the CAFTY compound dilution buffer (described above). From this dilution 10 μL were added to the cells in 30 μL growth medium and incubated for 36 hours at 37° C. and 5% CO2. Thereafter luciferase assay buffer (1:1 mixture of luciferase substrate buffer (20 mM Tricine, 2.67 mM MgSO4, 0.1 mM EDTA, 4 mM DTT, 270 μM Coenzyme A, 470 μM Luciferin, 530 μM ATP, ph adjusted to pH 7.8 with a sufficient volume of 5M NaOH) and Triton buffer (30 mL Triton X-100, 115 mL glycerol, 308 mg Dithiothreitol, 4.45 g Na2HPO4.2H2O, 3.03 g TRIS HCl, ad 1I H2O, pH 7.8) was added as equal volume to the compound solution on the cells to determine luciferase expression as a measure of Wnt signaling activity in a luminometer.
A general note: Reporter assays use an easily measured gene product as a stand-in for the process of interest.

For experiment [2], the system named is FOP control vector (randomized, non-functional sequence instead of functional TCF elements) in HCT116 cells. Briefly: Control reporter assay, HCT116 cells stably transfected with FOP control vector (HCT116-FOP), luciferase readout. In kind it is cell-based. The following applies: Homo sapiens, HCT-116, 36 hours incubation, luciferase expression, dilution series up to 50 μM. The procedure: In a parallel approach, HCT116 cells were cotransfected with the FOP control vector and pcDNA3. The FOP vector is identical to the TOP construct, but it contains instead of functional TCF elements a randomized, non-functional sequence. For this transfection a stable transfected cell line was generated as well.
as §1

IC50 data for 16 molecules are collected here from US20180042931A1 (Bayer Pharma Aktiengesellschaft, priority 2015, published 2018).

Where only a bound is given, the exact number is not on record here.

One may read the IC50 as the concentration needed to halve the response being measured. Regarding `Cc1ccc(C(=O)Nc2ccc(-c3cccnc3)cc2)cc1NC(=O)C1(N2CCOCC2)CC1` [Example 24, 4-methyl-3-({[1-(morpholin-4-yl)cyclopropyl]carbonyl}amino)-N-[4-(pyridin-3-yl)phenyl]benzamide], the results for the IC50 in experiment [1] and in experiment [2] were 34.1 nM and at least 50 µM, respectively.
Turning to `Cc1ccc(C(=O)Nc2ccc(-c3cccnc3F)cc2)cc1NC(=O)C1(N2CCOCC2)CC1` [Example 25, N-[4-(2-fluoropyridin-3-yl)phenyl]-4-methyl-3-({[1-(morpholin-4-yl)cyclopropyl]carbonyl}-amino)benzamide], the values for the IC50 in experiment [1] and in experiment [2] were 20.7 nM and at least 50 µM, respectively.
On the same counts, the results for `O=C(Nc1ccc(-c2cccnc2F)cc1)c1ccc(F)c(NC(=O)C2(N3CCOCC3)CC2)c1` [Example 26, 4-fluoro-N-[4-(2-fluoropyridin-3-yl)phenyl]-3-({[1-(morpholin-4-yl)cyclopropyl]carbonyl}-amino)benzamide] are 14 nM and at least 50 µM.
The corresponding values for `O=C(CN1CCOCC1)Nc1cc(C(=O)Nc2ccc(-c3cccnc3)cc2)ccc1OC(F)F` [Example 27, 4-(difluoromethoxy)-3-[(morpholin-4-ylacetyl)amino]-N-[4-(pyridin-3-yl)phenyl]benzamide] are 37 nM and at least 50 µM.
On the same counts, the results for `Nc1ncc(-c2ccc(NC(=O)c3ccc(OC(F)F)c(NC(=O)CN4CCOCC4)c3)cc2)cn1` [Example 28, N-[4-(2-aminopyrimidin-5-yl)phenyl]-4-(difluoromethoxy)-3-[(morpholin-4-ylacetyl)amino]benzamide] are 226 nM and 39 µM.
Turning to `Nc1ccc(-c2ccc(NC(=O)c3ccc(OC(F)F)c(NC(=O)CN4CCOCC4)c3)cc2)cn1` [Example 29, N-[4-(6-aminopyridin-3-yl)phenyl]-4-(difluoromethoxy)-3-[(morpholin-4-ylacetyl)amino]benzamide], the IC50 in experiment [1] is 48.8 nM; in experiment [2] it was at least 50 µM.
On the same counts, the results for `CN1CCN(CC(=O)Nc2cc(C(=O)Nc3ccc(-c4cccnc4)cc3)ccc2OC(F)(F)F)CC1` [Example 30, 3-{[(4-methylpiperazin-1-yl)acetyl]amino}-N-[4-(pyridin-3-yl)phenyl]-4-(trifluoromethoxy)benzamide] are 31.3 nM and 38.5 µM.
The corresponding values for `CN1CCN(CC(=O)Nc2cc(C(=O)Nc3ccc(-c4cccnc4F)cc3)ccc2OC(F)(F)F)CC1` [Example 31, N-[4-(2-fluoropyridin-3-yl)phenyl]-3-{[(4-methylpiperazin-1-yl)acetyl]amino}-4-(trifluoromethoxy)benzamide] are 31.8 nM and 38.5 µM.
The corresponding values for `CN1CCN(CC(=O)Nc2cc(C(=O)Nc3ccc(-c4cncnc4)cc3)ccc2OC(F)(F)F)CC1` [Example 32, 3-{[(4-methylpiperazin-1-yl)acetyl]amino}-N-[4-(pyrimidin-5-yl)phenyl]-4-(trifluoromethoxy)benzamide] are 47.5 nM and 40 µM.
Turning to `CN1CCN(CC(=O)Nc2cc(C(=O)Nc3ccc(-c4cnc(N)nc4)cc3)ccc2OC(F)(F)F)CC1` [Example 33], the values for the half-inhibitory concentration (IC50) in experiment [1] and in experiment [2] were 55.5 nM and at least 50 µM, respectively.
On the same counts, the results for `CN1CCN(CC(=O)Nc2cc(C(=O)Nc3ccc(-c4ccc(N)nc4)cc3)ccc2OC(F)(F)F)CC1` [Example 34, N-[4-(6-aminopyridin-3-yl)phenyl]-3-{[(4-methylpiperazin-1-yl)acetyl]amino}-4-(trifluoromethoxy)-benzamide] are 25.3 nM and 28 µM.
On the same counts, the results for `O=C(CN1CCOCC1)Nc1cc(C(=O)Nc2ccc(-c3cccnc3)cc2)ccc1OC1CC1` [Example 35, 4-(cyclopropyloxy)-3-[(morpholin-4-ylacetyl)amino]-N-[4-(pyridin-3-yl)phenyl]benzamide] are 23 nM and at least 50 µM.
As for `COc1ccc(NC(=O)c2ccc(-c3cnn(C)c3)cc2)cc1NC(=O)CN1CCOCC1` [Example 36, N-{4-methoxy-3-[(morpholin-4-ylacetyl)amino]phenyl}-4-(1-methyl-1H-pyrazol-4-yl)benzamide], the IC50 in experiment [1] is 15600 nM; in experiment [2], at least 50 µM.
The corresponding values for `COc1ccc(NC(=O)c2ccc(-c3cnc(N)nc3)cc2)cc1NC(=O)CN1CCOCC1` [Example 37, 4-(2-aminopyrimidin-5-yl)-N-{4-methoxy-3-[(morpholin-4-ylacetyl)amino]phenyl} benzamide] are 23000 nM and at least 50 µM.
For the molecule `COc1ccc(NC(=O)c2ccc(-c3cccnc3)cc2)cc1NC(=O)CN1CCOCC1` [Example 38, N-{4-methoxy-3-[(morpholin-4-ylacetyl)amino]phenyl)-4-(pyridin-3-yl)benzamide], the IC50 is 10900 nM in experiment [1] and at least 50 µM in experiment [2].
On the same counts, the results for `O=C(CN1CCOCC1)Nc1cc(C(=O)Nc2ccc(-c3cccnc3F)cc2)ccc1OC(F)F` [Example 39, 4-(difluoromethoxy)-N-[4-(2-fluoropyridin-3-yl)phenyl]-3-[(morpholin-4-ylacetyl)amino] benzamide] are 5400 nM and at least 50 µM.
